Results taken from publication PMC9856672, “SGC-CAMKK2-1: A Chemical Probe for CAMKK2” (Cells, 2023).

What was measured:
LRRK2(G2019S) = target: T1, LRRK2(G2019S) (Homo sapiens, UniProt Q5S007, G2019S); test: KINOMEscan 1 μM, LRRK2(G2019S); type: binding; conditions: 1000 nM; Entrez LRRK2; read-out: Percent Control
T1 construct: purchased Eurofins DiscoverX KINOMEscan
Excerpt: (§1) Supplement cells-12-00287-s001.zip/File S2. KinomeScan data for the CAMKK2 probe and negative control.xlsx, sheet "SGC-CAMKK2-1" | column: Percent Control

[1] = target: T2, RSK3(Kin.Dom.1-N-terminal) (Homo sapiens, UniProt Q15349); test: KINOMEscan 1 μM, RSK3(Kin.Dom.1-N-terminal); type: binding; conditions: 1000 nM; Entrez RPS6KA2; read-out: Percent Control
T2 construct: RSK3(Kin.Dom.1-N-terminal); purchased Eurofins DiscoverX KINOMEscan
Excerpt: as §1

DDR1 = target: T3, DDR1 (Homo sapiens, UniProt Q08345); test: KINOMEscan 1 μM, DDR1; type: binding; conditions: 1000 nM; Entrez DDR1; read-out: Percent Control
T3 construct: purchased Eurofins DiscoverX KINOMEscan
Excerpt: as §1

[2] = target: T4, RSK3(Kin.Dom.2-C-terminal) (Homo sapiens, UniProt Q15349); test: DiscoverX KINOMEscan binding assay at 1 μM, RSK3(Kin.Dom.2-C-terminal); conditions: RSK3(Kin.Dom.2-C-terminal) (RPS6KA2); Compound Concentration 1000 nM; read-out: Percent Control
T4 construct: RSK3(Kin.Dom.2-C-terminal); purchased Eurofins DiscoverX KINOMEscan
Excerpt: as §1

FLT3(D835H) = target: T5, FLT3(D835H) (Homo sapiens, UniProt P36888, D835H); test: KINOMEscan 1 μM, FLT3(D835H); type: binding; conditions: 1000 nM; Entrez FLT3; read-out: Percent Control
T5 construct: purchased Eurofins DiscoverX KINOMEscan
Excerpt: as §1

CDK9 = target: T6, CDK9 (Homo sapiens, UniProt P50750); test: KINOMEscan 1 μM, CDK9; type: binding; conditions: 1000 nM; Entrez CDK9; read-out: Percent Control
T6 construct: purchased Eurofins DiscoverX KINOMEscan
T6 sequence (P50750 whole entry): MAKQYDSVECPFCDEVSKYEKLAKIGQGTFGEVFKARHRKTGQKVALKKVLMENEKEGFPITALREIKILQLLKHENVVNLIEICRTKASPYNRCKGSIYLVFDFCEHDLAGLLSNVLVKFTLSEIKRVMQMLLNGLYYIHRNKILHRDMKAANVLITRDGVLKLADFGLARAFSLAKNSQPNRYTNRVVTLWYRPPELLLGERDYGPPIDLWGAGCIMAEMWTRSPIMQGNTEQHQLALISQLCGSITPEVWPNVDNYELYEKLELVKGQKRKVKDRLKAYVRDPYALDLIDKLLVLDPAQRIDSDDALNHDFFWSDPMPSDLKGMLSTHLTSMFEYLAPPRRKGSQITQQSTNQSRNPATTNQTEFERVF
Excerpt: as §1

TIE2 = target: T7, TIE2 (Homo sapiens, UniProt Q02763); test: KINOMEscan 1 μM, TIE2; type: binding; conditions: 1000 nM; Entrez TEK; read-out: Percent Control
T7 construct: purchased Eurofins DiscoverX KINOMEscan
Excerpt: as §1

LTK = target: T8, LTK (Homo sapiens, UniProt P29376); test: KINOMEscan 1 μM, LTK; type: binding; conditions: 1000 nM; Entrez LTK; read-out: Percent Control
T8 construct: purchased Eurofins DiscoverX KINOMEscan
T8 sequence (P29376 17-864): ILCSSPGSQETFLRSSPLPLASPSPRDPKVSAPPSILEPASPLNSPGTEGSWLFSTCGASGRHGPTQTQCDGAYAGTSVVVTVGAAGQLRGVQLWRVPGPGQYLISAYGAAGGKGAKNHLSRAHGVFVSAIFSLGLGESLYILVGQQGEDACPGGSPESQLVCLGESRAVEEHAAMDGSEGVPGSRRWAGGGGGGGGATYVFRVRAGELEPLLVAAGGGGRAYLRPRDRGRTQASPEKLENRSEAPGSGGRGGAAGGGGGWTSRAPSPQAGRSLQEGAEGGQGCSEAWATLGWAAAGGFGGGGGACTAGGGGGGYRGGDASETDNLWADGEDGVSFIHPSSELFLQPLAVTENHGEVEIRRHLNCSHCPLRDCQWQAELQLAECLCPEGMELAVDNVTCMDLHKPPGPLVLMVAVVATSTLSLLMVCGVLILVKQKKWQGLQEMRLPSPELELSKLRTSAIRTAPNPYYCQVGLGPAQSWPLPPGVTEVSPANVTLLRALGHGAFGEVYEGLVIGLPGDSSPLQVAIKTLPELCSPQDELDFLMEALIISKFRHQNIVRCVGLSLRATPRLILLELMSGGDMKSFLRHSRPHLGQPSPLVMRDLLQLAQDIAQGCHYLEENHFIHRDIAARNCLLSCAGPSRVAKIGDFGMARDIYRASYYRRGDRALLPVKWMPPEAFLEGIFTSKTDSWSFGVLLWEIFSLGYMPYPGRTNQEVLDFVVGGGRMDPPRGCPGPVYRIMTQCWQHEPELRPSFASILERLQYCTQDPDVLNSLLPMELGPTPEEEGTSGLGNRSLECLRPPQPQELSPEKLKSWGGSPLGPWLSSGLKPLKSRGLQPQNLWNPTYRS
Excerpt: as §1

ACVR1B = target: T9, ACVR1B (Homo sapiens, UniProt P36896); test: KINOMEscan 1 μM, ACVR1B; type: binding; conditions: 1000 nM; Entrez ACVR1B; read-out: Percent Control
T9 construct: purchased Eurofins DiscoverX KINOMEscan
Excerpt: as §1

[3] = target: T10, ABL1(H396P)-phosphorylated (Homo sapiens, UniProt P00519, H396P); test: KINOMEscan 1 μM, ABL1(H396P)-phosphorylated; type: binding; conditions: 1000 nM; Entrez ABL1; read-out: Percent Control
T10 construct: purchased Eurofins DiscoverX KINOMEscan
Excerpt: as §1

BUB1 = target: T11, BUB1 (Homo sapiens, UniProt O43683); test: KINOMEscan 1 μM, BUB1; type: binding; conditions: 1000 nM; Entrez BUB1; read-out: Percent Control
T11 construct: purchased Eurofins DiscoverX KINOMEscan
Excerpt: as §1

AURKC = target: T12, AURKC (Homo sapiens, UniProt Q9UQB9); test: KINOMEscan 1 μM, AURKC; type: binding; conditions: 1000 nM; Entrez AURKC; read-out: Percent Control
T12 construct: purchased Eurofins DiscoverX KINOMEscan
T12 sequence (Q9UQB9 whole entry): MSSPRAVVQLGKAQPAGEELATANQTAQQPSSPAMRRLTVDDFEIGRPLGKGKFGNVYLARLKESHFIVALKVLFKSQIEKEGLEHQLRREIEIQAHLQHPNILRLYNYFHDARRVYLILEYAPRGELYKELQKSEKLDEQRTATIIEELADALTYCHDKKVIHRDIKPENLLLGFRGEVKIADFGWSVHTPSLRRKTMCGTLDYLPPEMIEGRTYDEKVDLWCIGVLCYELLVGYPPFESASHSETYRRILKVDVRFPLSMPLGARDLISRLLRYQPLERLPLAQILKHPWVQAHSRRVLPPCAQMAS
Excerpt: as §1

FYN = target: T13, FYN (Homo sapiens, UniProt P06241); test: KINOMEscan 1 μM, FYN; type: binding; conditions: 1000 nM; Entrez FYN; read-out: Percent Control
T13 construct: purchased Eurofins DiscoverX KINOMEscan
T13 sequence (P06241 whole entry): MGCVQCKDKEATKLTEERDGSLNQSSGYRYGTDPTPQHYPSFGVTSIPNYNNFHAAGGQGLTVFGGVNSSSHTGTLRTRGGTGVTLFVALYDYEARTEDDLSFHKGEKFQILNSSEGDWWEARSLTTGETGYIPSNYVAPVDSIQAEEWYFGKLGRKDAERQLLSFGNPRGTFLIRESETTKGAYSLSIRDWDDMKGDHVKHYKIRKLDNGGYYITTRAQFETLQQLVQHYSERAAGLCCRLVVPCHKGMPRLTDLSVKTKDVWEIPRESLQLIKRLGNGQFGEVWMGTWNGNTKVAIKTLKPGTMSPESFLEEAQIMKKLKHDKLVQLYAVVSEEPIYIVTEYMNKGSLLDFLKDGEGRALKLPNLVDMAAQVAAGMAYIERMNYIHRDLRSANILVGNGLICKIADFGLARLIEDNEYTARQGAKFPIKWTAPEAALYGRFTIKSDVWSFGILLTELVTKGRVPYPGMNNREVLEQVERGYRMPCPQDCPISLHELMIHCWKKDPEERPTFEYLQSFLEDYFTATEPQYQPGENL
Excerpt: as §1

RIPK5 = target: T14, RIPK5 (Homo sapiens, UniProt Q6XUX3); test: DiscoverX KINOMEscan binding assay at 1 μM, RIPK5; conditions: RIPK5 (DSTYK); Compound Concentration 1000 nM; read-out: Percent Control
T14 construct: purchased Eurofins DiscoverX KINOMEscan
T14 sequence (Q6XUX3 whole entry): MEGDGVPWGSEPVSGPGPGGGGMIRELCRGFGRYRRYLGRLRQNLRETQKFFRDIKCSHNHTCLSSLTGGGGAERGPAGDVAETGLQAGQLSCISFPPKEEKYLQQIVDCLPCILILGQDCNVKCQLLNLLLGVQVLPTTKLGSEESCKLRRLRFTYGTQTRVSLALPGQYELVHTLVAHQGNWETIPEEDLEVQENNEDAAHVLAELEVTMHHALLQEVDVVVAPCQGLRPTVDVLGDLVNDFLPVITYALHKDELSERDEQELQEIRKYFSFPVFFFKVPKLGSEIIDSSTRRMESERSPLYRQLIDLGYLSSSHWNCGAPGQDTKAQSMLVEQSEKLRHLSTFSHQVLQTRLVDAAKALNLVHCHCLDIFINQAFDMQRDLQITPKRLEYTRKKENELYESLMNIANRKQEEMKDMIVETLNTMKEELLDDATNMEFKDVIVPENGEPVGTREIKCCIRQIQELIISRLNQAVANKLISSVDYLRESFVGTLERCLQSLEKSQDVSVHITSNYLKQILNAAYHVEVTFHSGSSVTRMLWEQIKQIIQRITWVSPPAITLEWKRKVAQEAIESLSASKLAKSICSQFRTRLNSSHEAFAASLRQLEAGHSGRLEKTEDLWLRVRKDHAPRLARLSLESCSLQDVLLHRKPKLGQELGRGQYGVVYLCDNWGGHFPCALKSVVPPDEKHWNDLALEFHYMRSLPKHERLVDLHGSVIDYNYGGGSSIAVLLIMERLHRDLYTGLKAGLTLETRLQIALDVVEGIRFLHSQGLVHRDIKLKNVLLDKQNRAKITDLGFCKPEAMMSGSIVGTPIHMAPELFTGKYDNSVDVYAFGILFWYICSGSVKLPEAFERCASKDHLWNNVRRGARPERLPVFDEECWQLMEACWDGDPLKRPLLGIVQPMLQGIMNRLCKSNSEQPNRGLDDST
Excerpt: as §1

EPHA3 = target: T15, EPHA3 (Homo sapiens, UniProt P29320); test: KINOMEscan 1 μM, EPHA3; type: binding; conditions: 1000 nM; Entrez EPHA3; read-out: Percent Control
T15 construct: purchased Eurofins DiscoverX KINOMEscan
Excerpt: as §1

JNK3 = target: T16, JNK3 (Homo sapiens, UniProt P53779); test: KINOMEscan 1 μM, JNK3; type: binding; conditions: 1000 nM; Entrez MAPK10; read-out: Percent Control
T16 construct: purchased Eurofins DiscoverX KINOMEscan
Excerpt: as §1

MYLK = target: T17, MYLK (Homo sapiens, UniProt Q15746); test: KINOMEscan 1 μM, MYLK; type: binding; conditions: 1000 nM; Entrez MYLK; read-out: Percent Control
T17 construct: purchased Eurofins DiscoverX KINOMEscan
Excerpt: as §1

YSK4 = target: T18, YSK4 (Homo sapiens, UniProt Q56UN5); test: KINOMEscan at 1 μM, YSK4; type: binding; conditions: 1000 nM, read-out: Percent Control
T18 construct: purchased Eurofins DiscoverX KINOMEscan
Excerpt: (§2) Supplement cells-12-00287-s001.zip/File S2. KinomeScan data for the CAMKK2 probe and negative control.xlsx, sheet "SGC-CAMKK2-1N" | column: Percent Control

CDK8 = target: T19, CDK8 (Homo sapiens, UniProt P49336); test: KINOMEscan at 1 μM, CDK8; type: binding; conditions: 1000 nM, read-out: Percent Control
T19 construct: purchased Eurofins DiscoverX KINOMEscan
Excerpt: as §2

RIOK2 = target: T20, RIOK2 (Homo sapiens, UniProt Q9BVS4); test: KINOMEscan at 1 μM, RIOK2; type: binding; conditions: 1000 nM, read-out: Percent Control
T20 construct: purchased Eurofins DiscoverX KINOMEscan
Excerpt: as §2

GRK7 = target: T21, GRK7 (Homo sapiens, UniProt Q8WTQ7); test: KINOMEscan at 1 μM, GRK7; type: binding; conditions: 1000 nM, read-out: Percent Control
T21 construct: purchased Eurofins DiscoverX KINOMEscan
Excerpt: as §2

CAMK2B = target: T22, CAMK2B (Homo sapiens, UniProt Q13554); test: KINOMEscan at 1 μM, CAMK2B; type: binding; conditions: 1000 nM, read-out: Percent Control
T22 construct: purchased Eurofins DiscoverX KINOMEscan
Excerpt: as §2

PAK1 = target: T23, PAK1 (Homo sapiens, UniProt Q13153); test: KINOMEscan at 1 μM, PAK1; type: binding; conditions: 1000 nM, read-out: Percent Control
T23 construct: purchased Eurofins DiscoverX KINOMEscan
Excerpt: as §2

TNK2 = target: T24, TNK2 (Homo sapiens, UniProt Q07912); test: KINOMEscan at 1 μM, TNK2; type: binding; conditions: 1000 nM, read-out: Percent Control
T24 construct: purchased Eurofins DiscoverX KINOMEscan
Excerpt: as §2

[4] = target: T25, ABL1(T315I)-nonphosphorylated (Homo sapiens, UniProt P00519, T315I); test: KINOMEscan at 1 μM, ABL1(T315I)-nonphosphorylated; type: binding; conditions: 1000 nM, read-out: Percent Control
T25 construct: purchased Eurofins DiscoverX KINOMEscan
Excerpt: as §2

LATS1 = target: T26, LATS1 (Homo sapiens, UniProt O95835); test: KINOMEscan at 1 μM, LATS1; type: binding; conditions: 1000 nM, read-out: Percent Control
T26 construct: purchased Eurofins DiscoverX KINOMEscan
T26 sequence (O95835 whole entry): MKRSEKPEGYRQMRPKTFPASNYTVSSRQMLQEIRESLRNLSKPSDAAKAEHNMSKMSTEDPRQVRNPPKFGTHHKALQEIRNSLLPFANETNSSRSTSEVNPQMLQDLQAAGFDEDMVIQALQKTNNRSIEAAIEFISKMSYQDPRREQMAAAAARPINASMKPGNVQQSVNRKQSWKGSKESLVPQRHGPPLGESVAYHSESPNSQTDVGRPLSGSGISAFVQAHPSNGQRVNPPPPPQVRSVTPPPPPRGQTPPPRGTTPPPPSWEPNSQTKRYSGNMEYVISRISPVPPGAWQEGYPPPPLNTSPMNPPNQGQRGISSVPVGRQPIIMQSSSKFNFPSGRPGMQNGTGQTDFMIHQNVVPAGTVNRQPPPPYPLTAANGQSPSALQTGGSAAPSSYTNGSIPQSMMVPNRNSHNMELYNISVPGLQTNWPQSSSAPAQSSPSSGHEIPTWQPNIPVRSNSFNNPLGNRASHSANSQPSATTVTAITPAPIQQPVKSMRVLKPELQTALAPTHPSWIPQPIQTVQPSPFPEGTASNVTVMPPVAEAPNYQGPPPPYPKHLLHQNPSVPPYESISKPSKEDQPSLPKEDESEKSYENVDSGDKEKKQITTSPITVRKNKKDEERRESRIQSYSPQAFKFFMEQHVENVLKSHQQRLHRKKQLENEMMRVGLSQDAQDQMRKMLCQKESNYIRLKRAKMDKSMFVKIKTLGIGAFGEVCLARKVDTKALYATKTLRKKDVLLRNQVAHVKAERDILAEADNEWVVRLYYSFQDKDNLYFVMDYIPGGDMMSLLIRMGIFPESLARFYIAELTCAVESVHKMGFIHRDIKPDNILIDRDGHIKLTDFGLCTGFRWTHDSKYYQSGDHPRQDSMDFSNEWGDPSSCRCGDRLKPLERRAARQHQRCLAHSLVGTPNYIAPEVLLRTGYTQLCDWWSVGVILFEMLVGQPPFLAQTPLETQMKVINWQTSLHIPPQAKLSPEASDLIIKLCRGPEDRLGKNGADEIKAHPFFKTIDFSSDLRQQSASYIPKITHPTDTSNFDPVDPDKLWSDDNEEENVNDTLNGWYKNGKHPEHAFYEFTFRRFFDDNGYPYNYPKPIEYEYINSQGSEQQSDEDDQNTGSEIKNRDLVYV
Excerpt: as §2

EPHA8 = target: T27, EPHA8 (Homo sapiens, UniProt P29322); test: KINOMEscan binding assay at 1 μM, EPHA8; conditions: Compound Concentration 1000 nM; read-out: Percent Control
T27 construct: purchased Eurofins DiscoverX KINOMEscan
Excerpt: as §2

IKK-alpha = target: T28, IKK-alpha (Homo sapiens, UniProt O15111); test: KINOMEscan at 1 μM, IKK-alpha; type: binding; conditions: 1000 nM, read-out: Percent Control
T28 construct: purchased Eurofins DiscoverX KINOMEscan
Excerpt: as §2

AURKA = target: T29, AURKA (Homo sapiens, UniProt O14965); test: KINOMEscan at 1 μM, AURKA; type: binding; conditions: 1000 nM, read-out: Percent Control
T29 construct: purchased Eurofins DiscoverX KINOMEscan
T29 sequence (O14965 whole entry): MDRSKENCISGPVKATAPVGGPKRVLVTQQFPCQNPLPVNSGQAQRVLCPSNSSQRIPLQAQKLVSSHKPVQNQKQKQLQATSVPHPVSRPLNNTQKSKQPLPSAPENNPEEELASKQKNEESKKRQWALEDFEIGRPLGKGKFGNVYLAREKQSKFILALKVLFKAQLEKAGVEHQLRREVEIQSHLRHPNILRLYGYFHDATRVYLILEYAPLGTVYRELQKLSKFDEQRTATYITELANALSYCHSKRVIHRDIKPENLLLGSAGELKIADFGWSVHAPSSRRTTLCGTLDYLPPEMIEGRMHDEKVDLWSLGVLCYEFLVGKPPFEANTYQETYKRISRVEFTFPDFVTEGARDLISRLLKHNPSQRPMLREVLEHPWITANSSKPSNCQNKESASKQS
Excerpt: as §2

AKT3 = target: T30, AKT3 (Homo sapiens, UniProt Q9Y243); test: KINOMEscan at 1 μM, AKT3; type: binding; conditions: 1000 nM, read-out: Percent Control
T30 construct: purchased Eurofins DiscoverX KINOMEscan
Excerpt: as §2

CSNK1G1 = target: T31, CSNK1G1 (Homo sapiens, UniProt Q9HCP0); test: KINOMEscan at 1 μM, CSNK1G1; type: binding; conditions: 1000 nM, read-out: Percent Control
T31 construct: purchased Eurofins DiscoverX KINOMEscan
T31 sequence (Q9HCP0 whole entry): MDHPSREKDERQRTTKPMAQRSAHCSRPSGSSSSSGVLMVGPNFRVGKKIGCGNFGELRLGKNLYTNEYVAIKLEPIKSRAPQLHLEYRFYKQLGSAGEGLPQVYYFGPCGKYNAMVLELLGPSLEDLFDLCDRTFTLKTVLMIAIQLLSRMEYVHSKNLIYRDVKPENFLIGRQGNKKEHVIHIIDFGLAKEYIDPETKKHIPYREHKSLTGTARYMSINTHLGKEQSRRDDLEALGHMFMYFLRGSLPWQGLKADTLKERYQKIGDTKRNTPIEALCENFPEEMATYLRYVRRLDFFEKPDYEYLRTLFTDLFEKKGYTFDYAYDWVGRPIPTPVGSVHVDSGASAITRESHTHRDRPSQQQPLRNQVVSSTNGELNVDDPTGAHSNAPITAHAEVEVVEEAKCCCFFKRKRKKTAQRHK
Excerpt: as §2

PLK4 = target: T32, PLK4 (Homo sapiens, UniProt O00444); test: KINOMEscan binding assay at 1 μM, PLK4; conditions: Compound Concentration 1000 nM; read-out: Percent Control
T32 construct: purchased Eurofins DiscoverX KINOMEscan
Excerpt: as §2

For Cc1cccc(-c2cnc3occ(-c4ccc(C(=O)O)c(C5CCCC5)c4)c3c2)c1 [SGC-CAMKK2-1 (YL-36)], the remaining binding at 1 µM (LRRK2(G2019S)) was 100%, the remaining binding at 1 µM [1] was 86% and the remaining binding at 1 µM (DDR1) was 98%. The remaining binding at 1 µM [2] was 100%, the remaining binding at 1 µM (FLT3(D835H)) was 87% and the remaining binding at 1 µM (CDK9) was 93%. It also gave a remaining binding at 1 µM (TIE2) of 97%, a remaining binding at 1 µM (LTK) of 100% and a remaining binding at 1 µM (ACVR1B) of 100%. For the same compound, the remaining binding at 1 µM [3] was 77%, the remaining binding at 1 µM (BUB1) was 100% and the remaining binding at 1 µM (AURKC) was 99%. It also gave a remaining binding at 1 µM (FYN) of 86%, a remaining binding at 1 µM (RIPK5) of 100% and a remaining binding at 1 µM (EPHA3) of 100%. The remaining binding at 1 µM (JNK3) was 100% and the remaining binding at 1 µM (MYLK) was 76%.

With O=C(O)c1ccc(-c2coc3ncc(-c4ccccc4)cc23)cc1Cl [SGC-CAMKK2-1N (UNC-YL-83)] the remaining binding at 1 µM (YSK4) was 77%, the remaining binding at 1 µM (CDK8) was 100% and the remaining binding at 1 µM (RIOK2) was 93%. For the same compound, the remaining binding at 1 µM (GRK7) was 50%, the remaining binding at 1 µM (CAMK2B) was 69% and the remaining binding at 1 µM (PAK1) was 42%. It also gave a remaining binding at 1 µM (TNK2) of 94%, a remaining binding at 1 µM [4] of 45% and a remaining binding at 1 µM (LATS1) of 83%. It also gave a remaining binding at 1 µM (EPHA8) of 100%, a remaining binding at 1 µM (IKK-alpha) of 75% and a remaining binding at 1 µM (AURKA) of 74%. The remaining binding at 1 µM (AKT3) was 95%, the remaining binding at 1 µM (CSNK1G1) was 95% and the remaining binding at 1 µM (PLK4) was 100%.
